Test results taken from patent publication US6743917B2, “Camptothecin analogs and methods of preparation thereof” (University of Pittsburgh, priority 1993, dated 2004).
≈ marks a conversion by molar mass, not a printed value. Where two headings read alike, the source gives them in different places.

Legend:
[1] = Kinetics of lactone ring opening in PBS buffer (HPLC); type: physicochemical; conditions: for % Lactone at Equilibrium: PBS
Experimental: Kinetics of Lactone Ring Opening. […] Mi and Burke (1994), supra.
FIG. 21 summarizes the stability of DB172 in phosphate buffered saline (PBS) buffer, pH 7.4, at physiological temperature. Shown in the figure are plots of lactone fraction as a function of time for DB172 at different concentrations. Drug was added to solution from a concentrated DMSO stock solution such that the volumes of DMSO were very small (less than 0.5%) relative to the volume of water. […] At the more dilute drug concentrations the drug hydrolyzes as previously observed for other camptothecins containing the ^α-hydroxy-^δ-lactone moiety.

in vitro = conditions: human
[2] = test system: glioma cells (U87, A172, SG388, T98G, LN-Z308); test: Inhibition of cell proliferation in glioma cell lines; type: cell-based; conditions: several lines of glioma cells (U87, A172, SG388, T98G, LN-Z308), read-out: median effective concentrations, inhibiting cell proliferation
[3] = test system: MDA-MB-435 tumorigenic metastatic human breast cancer cells; test: cells; type: cell-based; conditions: Homo sapiens, MDA-MB-435 cells, 72 hrs exposure
Experimental: Cells. […] The cells were exposed to a range of drug concentrations for 72 hr exposure periods and then viability was assessed using a sulphorrhodamine B (SRB) assay. SRB assays were performed using a standard assay.
Sulphorhodamine B (SRB) assay was used. This assay measures the total protein levels in the living cells. Proteins from dead cells are lysed and removed in the washing step before TCA fixation. However, it is possible that cells in the early stage of death still have their membrane integrity and therefore retain the protein contents inside. As a result, the optical density at 490 nm can sometimes be overestimated and the cytotoxicity underestimated. […] The SRB assay is now a well regarded assay and was recently approved by NCI as a standard assay for anticancer drug screening.

[4] = Equilibrium binding to DMPG small unilamellar vesicles (fluorescence anisotropy titration); conditions: for KDMPG overall association constant: PBS buffer at PH 7.4 and 37° C.
[5] = Equilibrium binding to DMPC small unilamellar vesicles (fluorescence anisotropy titration); conditions: for KDMPC overall association constant: PBS buffer at PH 7.4 and 37° C.
[6] = Kinetics of lactone ring opening in whole human blood (HPLC); conditions: Whole Blood, physiological temperature;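 note: hydrolytic opening of the camptothecin lactone ring followed over time by quantitative C18 reversed-phase HPLC in human whole blood at physiological temperature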
[7] = Self-association in aqueous solution (fluorescence intensity with time); type: physicochemical; conditions: lactone drug forms added to solution, time=0
Experimental: FIG. 22 summarizes the dependence of the fluorescence intensity of DB172 as a function of time and pH. In these experiments DB172 is added to solution as the lactone form. At low pH where the drug remains in the lactone form, the change in intensity with time is the lowest. At pH 10, where the conditions are such that the lactone more readily hydrolyzes and forms carboxylate, a significant change in fluorescence intensity is observed. It appears that a pH 10 nonfluorescent micellular aggregates composed of lactone disassemble and form open-ring carboxylate forms that tend to exist in solution as monomeric fluorescent species.
FIG. 23 explores the fluorescence intensity of DB172 as a function of concentration. Following the addition of low concentration of lactone drug to solution, the change in fluorescence signal is the greatest whereas at high drug concentration (10 ^μM) the fluorescence intensity changes are minimal. It is believed that a low concentration the micellular aggregates of DB172 displaying reduced fluorescence can disassemble and form fluorescent carboxylate species, but at higher drug concentration the equilibrium favors that the agent remains in the aggregated or reduced fluorescence state. […] Once again this decrease in fluorescence that occurs at reduced pH appear to be due to the formation of lactone aggregates of reduced fluorescence quantum yield.
FIGS. 21 through 24 are consistent with the unusual ability of DB172 lactone to self-associate and form micelles at micromolar drug concentrations. The micellular DB172 aggregates display a reduced fluorescence. If conditions allow for hydrolysis to occur such that carboxylate forms, there is an increase in the fluorescence intensity of the sample. FIG. 25 compares the relative change in the fluorescence emission of a sample following addition of lactone drug forms to solution. In these experiments the values for each drug are normalized to a value of 1 at time equals to zero, and the ability of the various analogs to disassociate in the event the drugs are aggregated at time=0 is monitored with time. […]

[8] = Kinetics of lactone ring opening in RBC (HPLC); type: in vitro ADME, human; conditions: RBC
Description: Kinetics of Lactone Ring Opening. […] Mi and Burke (1994), supra. […] Louis, Mo.) was used.

[9] = Kinetics of lactone ring opening in PBS containing HSA (HPLC); conditions: HSA (PBS containing 30 mg/ml HSA)
[10] = Blood levels of DB-67 after intrastomach dosing; type: in vivo; conditions: 5 mg/kg intrastomach injection in DMSO; samples at 30 min, 1 hr, 2 hr, 4 hr
Experimental: To evaluate the blood levels achieved following dosing at 5 mg/kg, four animals were given 0.1 ml intrastomach injections of DB-67 dissolved in DMSO. The stock contained DB67 at a concentration of 1.6 mg/ml. At time points of 30 min, 1 hr, 2 hr, and 4 hr, 1 ml samples of blood were drawn and collected by heart puncturing. The samples were centrifuged for 3 min and stored frozen until analysis was carried out.

[11] = absence of HSA, read-out: IC50 (w/o HSA)

CC[C@@]1(O)C(=O)OCc2c1cc1n(c2=O)Cc2c-1nc1ccc(O)cc1c2CC[Si](C)(C)C [DB-174, (20S)-10-Hydroxy-7-[(2-trimethylsilyl)ethyl]camptothecin]
% Lactone at Equilibrium [1]: 13.7 +/− 0.7% | half-life ([1]; buffer, pH 7.4): 29.7 min | half-life (in vitro; blood): 40.3 min | EC50 [2]: 0.01 to 0.1 µg/mL (≈ 0.0215 to 0.215 µM) | IC50 [3, 11]: 12 nM | KDMPG overall association constant [4]: 6600 M⁻¹ | KDMPC overall association constant [5]: 9000 M⁻¹ | K value for DMPC, fold greater than camptothecin ([5]; relative to camptothecin): ~90 fold

CC[C@@]1(O)C(=O)OCc2c1cc1n(c2=O)Cc2c-1nc1ccc(O)cc1c2[Si](C)(C)C(C)(C)C [DB-67, (20S)10-Hydroxy-7-tert-butyldimethylsilylcamptothecin]
% Lactone at Equilibrium [6]: 30% | t1/2 [6]: 133.0 ± 15.9 min | % Lactone at Equilibrium ([6]; listed as DB 67): 30.5 +/− 1.9% | % Lactone at Equilibrium [1]: 10.2 +/− 0.3% | half-life (in vitro; whole blood): 130 min | self-association / aggregation state in solution [7]: much more likely to be found in solution as monomeric drug relative to DB172 | IC50 [3, 11]: 7 nM | IC50 ([3]; presence of 1 mg/ml HSA, read-out: IC50 (w/HSA)): 22 nM | % Lactone at Equilibrium [8]: 41.4 +/− 0.7% | t1/2 [8]: 51.4 ± 0.5 min | % Lactone at Equilibrium [9]: 10.5 +/− 2.0% | t1/2 [9]: 119.0 ± 5.3 min | DB67 levels in blood after oral dosage [10]: > 40 ng/mL | KDMPG overall association constant [4]: 2800 M⁻¹ | K value for DMPG, fold greater than camptothecin ([4]; relative to camptothecin): 28 fold | KDMPC overall association constant [5]: 2700 M⁻¹ | K value for DMPC, fold greater than camptothecin ([5]; relative to camptothecin): 27 fold | times more lipophilic than camptothecin ([5]; relative to camptothecin): 25 times
